# Reference: patent publication US20230203081A1, “LINCOSAMIDE ANTIBIOTICS AND USES THEREOF” (President and Fellows of Harvard College, priority 2020, published 2023)
# Experiments:
# Assay type in all cases: cell-based
# [1] = system: E. coli ΔTolC; assay: microbe, parasite or virus in culture; conditions: Escherichia coli, E. coli ΔTolC
# Description: (§1) Minimum inhibitory concentrations (MICs) were determined by broth microdilution method or agar dilution method following the Clinical and Laboratory Standards Institute guidelines. Standard bacterial strains were obtained from American Type Culture Collection (ATCC). Other bacterial strains were obtained from hospitals and commercial sources, so noted in Table 11. […] Specialized procedures were employed for streptococcal and anaerobic strains. All other bacterial strains were sub-cultured on blood agar plates (tryptic soy agar with 5% sheep blood, Hardy Diagnostics) and incubated overnight at 35° C. […] Suspensions were further diluted to obtain a final inoculum of 5×10^5 CFU/mL for broth microdilution experiments.
# [2] = system: S. pyogenes ATCC 19615; assay: MIC (broth microdilution or agar dilution, CLSI); conditions: Streptococcus pyogenes, ATCC19615, S. pyogenes ATCC 19615; read-out: MIC
# Description: as §1
# [3] = system: E. coli LptD; assay: MIC (broth microdilution or agar dilution, CLSI); conditions: Escherichia coli, E. coli LptD; read-out: MIC
# Description: as §1
# [4] = system: E. faecalis ATCC 29212; assay: MIC (broth microdilution or agar dilution, CLSI); conditions: Enterococcus faecalis, ATCC29212, E. faecalis ATCC 29212; read-out: MIC
# Description: as §1
# [5] = system: E. coli ATCC 25922; assay: MIC (broth microdilution or agar dilution, CLSI); conditions: Escherichia coli, ATCC25922; E. coli ATCC 25922; read-out: MIC
# Description: as §1
# [6] = system: S. aureus ATCC 29213; assay: MIC (broth microdilution or agar dilution, CLSI); conditions: Staphylococcus aureus, ATCC29213, S. aureus ATCC 29213; read-out: MIC
# Description: as §1
# [7] = system: K. oxytoca Clinical; assay: MIC (broth microdilution or agar dilution, CLSI); conditions: Klebsiella oxytoca; K. oxytoca Clinical; read-out: MIC
# Description: as §1
# [8] = system: S. pneumoniae ATCC 49619; assay: MIC (broth microdilution or agar dilution, CLSI); conditions: Streptococcus pneumoniae, ATCC49619, S. pneumoniae ATCC 49619; read-out: MIC
# Description: as §1
# [9] = system: S. aureus cErmA; assay: MIC (broth microdilution or agar dilution, CLSI); conditions: Staphylococcus aureus; S. aureus cErmA; read-out: MIC
# Description: (§2) Minimum inhibitory concentrations (MICs) were determined by broth microdilution method or agar dilution method following the Clinical and Laboratory Standards Institute guidelines. Standard bacterial strains were obtained from American Type Culture Collection (ATCC). Other bacterial strains were obtained from hospitals and commercial sources, so noted in Table 11. Before the start of the MIC experiment, standard and test compound stock solutions were prepared in dimethyl sulfoxide (DMSO, Aldrich D2650) at a stock concentration of 5,120 μg/mL. The compound concentration range typically employed for each experiment was 128-0.06 μg/mL (2.5% final DMSO concentration). Clindamycin was used as a comparator in all experiments and each experiment was performed in triplicate. Specialized procedures were employed for streptococcal and anaerobic strains. All other bacterial strains were sub-cultured on blood agar plates (tryptic soy agar with 5% sheep blood, Hardy Diagnostics) and incubated overnight at 35° C. Organisms were suspended in cation-adjusted Mueller-Hinton broth (CaMHB, BD 212322) and optical density was adjusted to 0.5 McFarland standard. Suspensions were further diluted to obtain a final inoculum of 5×10^5 CFU/mL for broth microdilution experiments.
# [10] = system: E. faecium Clinical VRE; assay: MIC (broth microdilution or agar dilution, CLSI); conditions: Enterococcus faecium; E. faecium Clinical VRE; read-out: MIC
# Description: as §2
# [11] = system: broad panel of different clinical isolates; assay: microbe, parasite or virus in culture; conditions: Staphylococcus aureus, norA
# Description: as §1
SMILES,MIC [1],MIC [2],MIC [3],MIC [4],MIC [5],MIC [6],MIC [7],MIC [8],MIC [9],MIC [10],"MIC ([11]; S. aureus HAV#051, mecA, spcl, ermA, aad1, aac6′-aph2″)","MIC ([11]; S. aureus HAV#052, mecA, fosB, blaZ)","MIC ([11]; S. aureus HAV#053 mecA, fosB)","MIC ([11]; S. aureus HAV#054, mecA, spcl, aad1, fosB, ermA, aac6′-aph2″, blaZ)"
"CS[C@H]1O[C@H]([C@H](NC(=O)[C@H]2NC[C@@H]3C[C@H](CC(C)C)CCO[C@H]32)[C@H](C)Sc2ccc(CO)cc2)[C@H](O)[C@H](O)[C@H]1O [FSA-09-05-069, (4S,5aS,8S,8aR)-N-((1S,2S)-2-((4-(Hydroxymethyl)phenyl)thio)-1-((2R,3R,4S,5R,6R)-3,4,5-trihydroxy-6-(methylthio)tetrahydro-2H-pyran-2-yl)propyl)-4-isobutyloctahydro-2H-oxepino[2,3-c]pyrrole-8-carboxamide]",4 µg/mL,0.25 µg/mL,16 µg/mL,1 µg/mL,128 µg/mL,1 µg/mL,128 µg/mL,0.125 µg/mL,64 µg/mL,16 µg/mL,–,–,–,–
"CS[C@H]1O[C@H]([C@H](NC(=O)[C@H]2NC[C@@H]3C[C@H](CC(C)C)CCO[C@H]32)[C@H](C)Sc2ccc(CN3CCCCC3)cc2)[C@H](O)[C@H](O)[C@H]1O [FSA-09-05-077, (4S,5aS,8S,8aR)-4-Isobutyl-N-((1S,2S)-2-((4-(piperidin-1-ylmethyl)phenyl)thio)-1-((2R,3R,4S,5R,6R)-3,4,5-trihydroxy-6-(methylthio)tetrahydro-2H-pyran-2-yl)propyl)octahydro-2H-oxepino[2,3-c]pyrrole-8-carboxamide]",4 µg/mL,0.125 µg/mL,1 µg/mL,1 µg/mL,16 µg/mL,2 µg/mL,1 µg/mL,0.25 µg/mL,4 µg/mL,1 µg/mL,–,–,–,–
CSC1O[C@H]([C@H](NC(=O)[C@H]2NC[C@@H]3C[C@H](CCC(F)F)CCO[C@H]32)[C@H](C)Cl)C(O)C(O)[C@H]1O (stereo partly drawn) [FSA-12-03-055],1 µg/mL,0.06 µg/mL,4 µg/mL,0.25 µg/mL,16 µg/mL,0.125 µg/mL,16 µg/mL,0.06 µg/mL,16 µg/mL,8 µg/mL,–,–,–,–
"CS[C@H]1O[C@H]([C@H](NC(=O)[C@H]2NC[C@@H]3C[C@H](CC(C)C)CCO[C@H]32)[C@@H](C)O)[C@H](O)[C@H](O)[C@H]1O [FSA-09-04-072, (4S,5aS,8S,8aR)-N-((1R,2R)-2-Hydroxy-1-((2R,3R,4S,5R,6R)-3,4,5-trihydroxy-6-(methylthio)tetrahydro-2H-pyran-2-yl)propyl)-4-isobutyloctahydro-2H-oxepino[2,3-c]pyrrole-8-carboxamide]",1 µg/mL,0.5 µg/mL,2 µg/mL,0.25 µg/mL,16 µg/mL,1 µg/mL,16 µg/mL,0.5 µg/mL,32 µg/mL,0.5 µg/mL,–,–,–,–
NCC[C@H](O)C(=O)N[C@@H]1C[C@H](N)[C@@H](O[C@H]2O[C@H](CN)[C@@H](O)[C@H](O)[C@H]2O)[C@H](O)[C@H]1O[C@H]1O[C@H](CO)[C@@H](O)[C@H](N)[C@H]1O [Amikacin],–,–,–,–,–,–,–,–,–,–,4 µg/mL,4 µg/mL,4 µg/mL,64 µg/mL
"CS[C@H]1O[C@H]([C@H](NC(=O)[C@H]2NC[C@@H]3C[C@H](CC(C)C)CCO[C@H]32)[C@H](C)Sc2ccc(CCN(C)C)cc2)[C@H](O)[C@H](O)[C@H]1O [FSA-09-04-087, (4S,5aS,8S,8aR)-N-((1S,2S)-2-((4-(2-(Dimethylamino)ethyl)phenyl)thio)-1-((2R,3R,4S,5R,6R)-3,4,5-trihydroxy-6-(methylthio)tetrahydro-2H-pyran-2-yl)propyl)-4-isobutyloctahydro-2H-oxepino[2,3-c]pyrrole-8-carboxamide]",1 µg/mL,0.5 µg/mL,1 µg/mL,0.5 µg/mL,16 µg/mL,1 µg/mL,16 µg/mL,0.5 µg/mL,8 µg/mL,4 µg/mL,–,–,–,–
